Experimental findings from US9951046B2, “TRPA1 modulators” (Algomedix, Inc., priority 2014, dated 2018) are described below.

The target of this experiment is T1, human TRPA1 (Homo sapiens, UniProt O75762).
T1 construct: expressed in transfected cells
As to the kind of experiment: Cell-based functional intracellular calcium ([Ca2+]i) assay, Fluo-4/Fluo-8, FlexStation, challenge with reference TRPA1 agonist (FFA, AITC or 4-HNE). As for the experimental part:
A stable HEK293 cell line that expresses human TRPA1 in an inducible manner was employed in this assay. […] The expression of TRPA1 was induced by including 1 μg/ml doxycycline in the culture medium. For the induced cells, ruthenium red (5 μM) was also added to minimize the constitutive TRPA1 channel activity and cells were used 14-18 hrs after induction. To measure [Ca^2+]i changes, cells were seeded in wells of 96-well plates at ˜100,000 cells/well and grown for 14-18 hrs to reach confluency. To prevent cell loss from subsequent washing, the wells were treated with 20 μg/ml polyornithine (MW>30,000, Sigma, St Louis, Mo.) for >15 min and rinsed once with Hank's balanced salt solution without Mg^2+ and Ca^2+. […] In some experiments, Fluo-8-AM was used instead of Fluo-4-AM as the calcium-sensitive fluorescent probe. Probenecid (2 mM) was included in all solutions to prevent the leakage of Fluo-4 or Fluo-8 from the cells. At the end of the incubation, cells were washed three times with ECS and placed in 80 μL of the same solution. Fluorescence changes were measured using a fluid handling integrated fluorescence plate reader, FlexStation (Molecular Devices, Sunnyvale, Calif.). Stock solutions of test compounds were initially solubilized in 100% DMSO and then serially diluted to achieve the desired final concentration. […] Drugs were diluted into ECS at 2× or 3× the desired final concentrations and delivered to the sample plate by an integrated robotic 8-channel pipettor at preprogrammed time points. […] Experiments were performed at 20-25° C. For certain experiments, 0.1% BSA was included with the cells and test compounds.
The kinetic data obtained at each test concentration of drug represents a series of fluorescent intensities as a function of time.
Using a sequential addition protocol, test compounds were initially applied to the cells loaded with Fluo-4 or Fluo-8 and fluorescence changes in each well monitored for 2.5 min. The plate was read again in a kinetic mode after a 15-30 min incubation with the test compounds after obtaining baseline values (about 30 s) and subsequent addition of challenge with a reference TRPA1 agonist. Reference TRPA1 agonists in testing each compound included at least one of flufenamic acid (FFA), allyl isothiocyanate (AITC) and 4-hydroxynonenal (4-HNE).
Antagonist activity can be expressed in terms of IC50 with respect to TRPA1 and agonist activity can be expressed in terms of EC50 with respect to TRPA1.

Where [1] appears, read: HEK293 cells expressing human TRPA1, IC50 class after addition of reference TRPA1 agonist (FFA, AITC or 4-HNE), read-out: human TRPA1-HEK Activity.

The structures appear in SMILES notation. pIC50: −log10 of the molar value. Like-named read-outs stand apart in the source and are kept apart here. A value given as a limit tells only on which side of the number the result lay.

T1 sequence (O75762 whole entry): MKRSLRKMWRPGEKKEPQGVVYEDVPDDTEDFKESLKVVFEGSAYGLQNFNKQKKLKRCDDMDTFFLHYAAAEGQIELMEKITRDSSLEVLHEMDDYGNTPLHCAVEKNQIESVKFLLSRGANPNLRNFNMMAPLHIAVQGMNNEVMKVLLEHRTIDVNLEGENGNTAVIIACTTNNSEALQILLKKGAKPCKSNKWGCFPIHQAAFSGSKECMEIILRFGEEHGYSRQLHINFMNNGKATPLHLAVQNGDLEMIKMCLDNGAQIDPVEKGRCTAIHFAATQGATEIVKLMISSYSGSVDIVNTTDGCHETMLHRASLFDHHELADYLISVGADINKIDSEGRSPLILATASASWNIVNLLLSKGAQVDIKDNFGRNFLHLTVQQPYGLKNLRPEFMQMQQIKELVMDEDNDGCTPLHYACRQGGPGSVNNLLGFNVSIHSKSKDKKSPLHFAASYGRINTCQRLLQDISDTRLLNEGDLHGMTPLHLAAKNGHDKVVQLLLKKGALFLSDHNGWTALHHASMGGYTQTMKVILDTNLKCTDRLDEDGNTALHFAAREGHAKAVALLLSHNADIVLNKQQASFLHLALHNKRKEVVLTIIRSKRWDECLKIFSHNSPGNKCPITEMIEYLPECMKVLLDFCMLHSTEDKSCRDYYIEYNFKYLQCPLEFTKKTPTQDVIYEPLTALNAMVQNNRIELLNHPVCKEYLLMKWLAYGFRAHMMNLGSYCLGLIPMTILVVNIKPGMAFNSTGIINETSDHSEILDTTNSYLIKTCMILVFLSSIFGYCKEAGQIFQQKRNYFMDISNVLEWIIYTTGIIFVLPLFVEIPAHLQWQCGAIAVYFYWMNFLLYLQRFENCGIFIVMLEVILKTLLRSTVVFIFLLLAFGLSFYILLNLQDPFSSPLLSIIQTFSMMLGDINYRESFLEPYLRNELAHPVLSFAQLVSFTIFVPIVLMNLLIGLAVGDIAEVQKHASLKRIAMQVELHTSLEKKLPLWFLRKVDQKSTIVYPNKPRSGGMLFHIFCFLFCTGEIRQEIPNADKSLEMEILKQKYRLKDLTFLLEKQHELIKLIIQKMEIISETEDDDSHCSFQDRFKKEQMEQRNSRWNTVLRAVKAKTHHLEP

Regarding `O=C(c1cc(-c2ccncc2)n(-c2ccc(F)c(F)c2)n1)N1CCC(n2c(=O)[nH]c3ccccc32)CC1` [Compound 150], the pIC50 under setting [1] is 4.60 to 5.30.
Take `O=C(c1cc(-c2ccncc2)n(-c2ccc(F)c(F)c2)n1)N1CCC2(CC1)OCCO2` [Compound 151]: the pIC50 is under 4.60.
Consider `O=C(c1cc(-c2ccncc2)n(-c2ccc(F)cc2F)n1)N1CCC2(CC1)C(=O)NCN2c1ccccc1` [Compound 152], for which the pIC50 under setting [1] is under 4.60.
Same read-out and setting: in the case of `O=C(c1cc(-c2ccncc2)n(-c2ccc(F)cc2F)n1)N1CCC(n2c(=O)[nH]c3ccccc32)CC1` [Compound 153] it was under 4.60.
Take `O=C(c1cc(-c2ccncc2)n(-c2ccc(F)cc2F)n1)N1CCC2(CC1)OCCO2` [Compound 154]: the pIC50 was under 4.60.
Regarding `O=C(c1cc(-c2ccncc2)n(-c2ccc3c(c2)OCO3)n1)N1CCC2(CC1)C(=O)NCN2c1ccccc1` [Compound 155], under setting [1], the pIC50 was under 4.60.
As to `O=C(c1cc(-c2ccncc2)n(-c2ccc3c(c2)OCO3)n1)N1CCC(n2c(=O)[nH]c3ccccc32)CC1` [Compound 156], under setting [1], the pIC50 was under 4.60.
As to `O=C(c1cc(-c2ccncc2)n(-c2ccc3c(c2)OCO3)n1)N1CCC2(CC1)OCCO2` [Compound 157], the pIC50 is under 4.60.
As for `O=C(c1cc(-c2ccncc2)n(-c2cc(C(F)(F)F)cc(C(F)(F)F)c2)n1)N1CCC2(CC1)C(=O)NCN2c1ccccc1` [Compound 158], the pIC50 under setting [1] was 4.60 to 5.30.
With `O=C(c1cc(-c2ccncc2)n(-c2cc(C(F)(F)F)cc(C(F)(F)F)c2)n1)N1CCC(n2c(=O)[nH]c3ccccc32)CC1` [Compound 159], the pIC50 under setting [1] was 4.60 to 5.30.
As for `O=C(c1cc(-c2ccncc2)n(-c2cc(C(F)(F)F)cc(C(F)(F)F)c2)n1)N1CCC2(CC1)OCCO2` [Compound 160], the pIC50 is under 4.60.
With `O=C(c1cc(-c2ccncc2)n(-c2ccc(C(F)(F)F)c(F)c2)n1)N1CCC2(CC1)C(=O)NCN2c1ccccc1` [Compound 161], the pIC50 under setting [1] is 4.60 to 5.30.
Same read-out and setting: the value for `O=C(c1cc(-c2ccncc2)n(-c2ccc(C(F)(F)F)c(F)c2)n1)N1CCC(n2c(=O)[nH]c3ccccc32)CC1` [Compound 162] was 4.60 to 5.30.
Consider `O=C(c1cc(-c2ccncc2)n(-c2ccc(C(F)(F)F)c(F)c2)n1)N1CCC2(CC1)OCCO2` [Compound 163], for which the pIC50 was 4.60 to 5.30.
`O=C(c1cc(-c2ccncc2)n(-c2ccc(C(F)(F)F)nc2)n1)N1CCC2(CC1)C(=O)NCN2c1ccccc1` [Compound 164]: under setting [1], the pIC50 was 4.60 to 5.30.
On the same count and under the same terms, in the case of `O=C(c1cc(-c2ccncc2)n(-c2ccc(C(F)(F)F)nc2)n1)N1CCC(n2c(=O)[nH]c3ccccc32)CC1` [Compound 165] it was under 4.60.
Turning to `O=C(c1cc(-c2ccncc2)n(-c2ccc(C(F)(F)F)nc2)n1)N1CCC2(CC1)OCCO2` [Compound 166], the pIC50 was under 4.60.
Consider `O=C(c1cc(-c2ccncc2)n(-c2cnccn2)n1)N1CCC2(CC1)C(=O)NCN2c1ccccc1` [Compound 167], for which the pIC50 under setting [1] was 4.60 to 5.30.
For the compound `O=C(c1cc(-c2ccncc2)n(-c2cnccn2)n1)N1CCC(n2c(=O)[nH]c3ccccc32)CC1` [Compound 168], the pIC50 under setting [1] was 4.60 to 5.30.
For `O=C(c1cc(-c2ccncc2)n(-c2cnccn2)n1)N1CCC2(CC1)OCCO2` [Compound 169], the pIC50 is under 4.60.
For `O=C(c1cc(-c2ccncc2)n(-c2ccccc2)n1)N1CCC2(CC1)OCc1ccccc12` [Compound 170], the pIC50 under setting [1] was under 4.60.
As to `O=C1OC2(CCN(C(=O)c3cc(-c4ccncc4)n(-c4ccccc4)n3)CC2)c2ccccc21` [Compound 171], the pIC50 under setting [1] was under 4.60.
Consider `Cn1c(=O)n(C2CCN(C(=O)c3cc(-c4ccncc4)n(-c4ccccc4)n3)CC2)c2ccccc21` [Compound 172], for which the pIC50 under setting [1] was under 4.60.
Same read-out and setting: the value for `O=C(c1cc(-c2ccncc2)n(-c2ccccc2)n1)N1CCC(N2C(=O)OC[C@H]2c2ccccc2)CC1` [Compound 173] was under 4.60.
In the case of `CN1C(=O)NC2(CCN(C(=O)c3cc(-c4ccncc4)n(-c4ccccc4)n3)CC2)C1=O` [Compound 174], the pIC50 under setting [1] was under 4.60.
